Measurements as given in the supplement of paper PMC10307832.

Columns and labels:
Experiment in all cases: relative viability (nuclei count vs DMSO), 5 days (fraction); higher = more cells survive
Trametinib + Luminespib = compound: CC(=O)Nc1cccc(-n2c(=O)n(C3CC3)c(=O)c3c(Nc4ccc(I)cc4F)n(C)c(=O)c(C)c32)c1 [Trametinib] + CCNC(=O)c1noc(-c2cc(C(C)C)c(O)cc2O)c1-c1ccc(CN2CCOCC2)cc1 [Luminespib] (partner 0.01 µM)
In short: (§1)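 For relative viability, nuclei counts in treated wells were divided by those in vehicle wells. Lung cancer cell lines had been pin-tool dosed in 1536-well plates the day after seeding and cultured for 5 days, then fixed and stained in one step (final 0.05% Triton X-100, 1% formaldehyde, 1 ug/ml Hoechst) and imaged at 4×. Doses were one drug alone or a fixed anchor-drug dose plus five library-drug doses (not always all listed) in √10 steps, and values are duplicate-plate medians.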

Trametinib + Olaparib = compound: CC(=O)Nc1cccc(-n2c(=O)n(C3CC3)c(=O)c3c(Nc4ccc(I)cc4F)n(C)c(=O)c(C)c32)c1 [Trametinib] + O=C(c1cc(Cc2n[nH]c(=O)c3ccccc23)ccc1F)N1CCN(C(=O)C2CC2)CC1 [Olaparib] (partner 8 µM)
In short: as §1

[1] = compound: CN1C=C(C2=CC=CC=C21)/C=C\3/C4=C(C=CC=N4)NC3=O + COc1cccc2cc(-c3nc([C@H]4CC[C@H](C(=O)O)CC4)n4ncnc(N)c34)[nH]c12 [OSI-027] (partner 0.5 µM)
In short: as §1

[2] = compound: CN1C=C(C2=CC=CC=C21)/C=C\3/C4=C(C=CC=N4)NC3=O + NC(=O)Nc1cc(-c2cccc(F)c2)sc1C(=O)N[C@H]1CCCNC1 [AZD7762] (partner 0.2 µM)
In short: as §1

Row | Cell Line | relative viability (Trametinib + Luminespib; first compound 0.0025 µM) | relative viability (Trametinib + Luminespib; first compound 0.007906 µM) | relative viability (Trametinib + Luminespib; first compound 0.025 µM) | relative viability (Trametinib + Luminespib; first compound 0.07906 µM) | relative viability (Trametinib + Luminespib; first compound 0.25 µM) | relative viability (Trametinib + Olaparib; first compound 0.0025 µM) | relative viability (Trametinib + Olaparib; first compound 0.007906 µM) | relative viability (Trametinib + Olaparib; first compound 0.025 µM) | relative viability (Trametinib + Olaparib; first compound 0.07906 µM) | relative viability (Trametinib + Olaparib; first compound 0.25 µM) | relative viability ([1]; first compound 0.02 µM) | relative viability ([1]; first compound 0.06325 µM) | relative viability ([1]; first compound 0.2 µM) | relative viability ([1]; first compound 0.6325 µM) | relative viability ([1]; first compound 2 µM) | relative viability ([2]; first compound 0.02 µM) | relative viability ([2]; first compound 0.06325 µM) | relative viability ([2]; first compound 0.2 µM) | relative viability ([2]; first compound 0.6325 µM) | relative viability ([2]; first compound 2 µM)
1 | LCLC-97TM1 | 0.802 | 0.493 | 0.291 | 0.226 | 0.234 | 0.304 | 0.41 | 0.254 | 0.188 | 0.0956 | 0.372 | 0.447 | 0.542 | 0.476 | 0.482 | 0.177 | 0.188 | 0.0774 | 0.168 | 0.284
2 | NCI-H1915 | 0.823 | 0.55 | 0.297 | 0.204 | 0.123 | 0.266 | 0.21 | 0.198 | 0.168 | 0.144 | 0.621 | 0.635 | 0.665 | 0.673 | 0.761 | 0.678 | 0.646 | 0.529 | 0.751 | 0.699
3 | NCI-H3122 | 0.103 | 0.0926 | 0.0926 | 0.0939 | 0.0775 | 0.558 | 0.532 | 0.43 | 0.263 | 0.237 | 0.879 | 0.9 | – | 1.18 | 1.4 | 0.85 | 0.953 | 0.845 | 1.04 | 1.07
4 | NCI-H1993 | 0.74 | 0.693 | 0.749 | 0.528 | 0.578 | 0.961 | 0.834 | 0.789 | 0.542 | 0.537 | 0.454 | 0.515 | 0.587 | 0.571 | 0.577 | 0.704 | 0.666 | 0.671 | 0.698 | 0.626
5 | NCI-H2405 | 0.529 | 0.591 | 0.395 | 0.338 | 0.306 | 0.859 | 0.799 | 0.83 | – | 0.53 | 0.703 | 0.611 | 0.62 | 0.657 | 0.711 | 0.857 | 0.731 | 0.552 | 0.835 | 0.795
6 | NCI-H2342 | 0.728 | 0.582 | – | 0.587 | 0.604 | 0.404 | 0.4 | 0.327 | 0.359 | 0.399 | 0.617 | 0.616 | 0.596 | 0.535 | 0.65 | 0.434 | 0.459 | 0.393 | 0.42 | 0.406
